Test results reported in PubChem BioAssay AID1508591.

Conditions: rat; liver microsomes; pH 7.4; 15.0 min; 1.0 µM

Row | Structure (SMILES) | half-life
1 | Cc1ccnc(NC(=S)N2CCN(c3cc(C(F)(F)F)cc(C(F)(F)F)c3)CC2)c1 | > 30 min
2 | COc1cc(Nc2nc(-c3ccncc3)nc3ccccc23)ccc1Cl | 12 min
3 | CCOc1ccc(CCNC(=O)c2cc3ccccc3n2Cc2cccc(C)c2)cc1OCC | 1.6 min
4 | CC1(C)C(=O)NC2=C1C(=O)C(=O)c1ccccc12 | > 30 min
5 | NC(=O)C1CCN(c2ncc(-c3ccc4c(c3)OCO4)s2)CC1 | 7.65 min
6 | O=C(Nc1nc(-c2ccc(F)cc2)cs1)c1ccncc1NS(=O)(=O)c1ccccc1Cl | > 30 min
7 | O=C(O)[C@H]1O[C@H]1C(=O)O | 14.7 min
8 | COc1cccc(CNc2ccc(S(=O)(=O)Nc3ccccn3)cc2)c1O | > 30 min
9 | Cc1cccc(N(C)c2nc3ccccc3c3nnc(C)n23)c1 | 1.57 min
10 | O=C(Nc1cc(C(F)(F)F)ccc1N1CCOCC1)c1n[nH]c(=O)c2ccccc12 | > 30 min
11 | CN1CCN(C(c2ccccc2)c2ccccc2)CC1 | 2.56 min
12 | COc1ccc(-n2nc(C3CCCN(C(=O)c4ccccc4F)C3)[nH]c2=O)cc1 (configuration not stated) | > 30 min
13 | COc1ccc(C(=O)NC2CCN(c3cnn(CC4CC4)c(=O)c3)CC2)c(OC)n1 | 13.9 min
14 | Cc1ccc(CNCc2cn[nH]c2-c2ccc(C)cc2)cc1 | 1.34 min
15 | CC(=O)N1CCN(c2ccc(OCc3nn(C)c(C)c3-c3cccc4c(CCCOc5cc(C)c(Cl)c(C)c5)c(C(=O)O)n(Cc5cccnc5)c34)cc2)CC1 | 8.9 min
16 | CCc1ccc(NC(=O)c2[nH]c(C)c(C(C)=O)c2C)cc1[S+](=O)([O-])Nc1ccccc1C#N | > 30 min
17 | CC(C)CC(=O)Nc1n[nH]c2c1CN(C(=O)C1CCN(C)CC1)C2(C)C | > 30 min
18 | COCCNc1ncnc2onc(-c3ccc(F)cc3)c12 | > 30 min
19 | O=C(O)C1CCN(c2ncc(-c3ccc4c(c3)OCCCO4)s2)CC1 | > 30 min
20 | COc1ccc(NC(=O)c2cccnc2C)cc1S(=O)(=O)Nc1ccc(Br)cc1 | 11 min
21 | CCS(=O)(=O)c1ncc(N(Cc2ccc(F)cc2)Cc2ccco2)c(C(=O)Nc2cc(C)ccc2C)n1 | 3.51 min
22 | Cc1nc([N+](=O)[O-])cn1-c1ccc([N+](=O)[O-])cc1 | > 30 min
23 | CC(C)(C)c1ccc(C(=O)Nc2cn3cc(-n4ccnc4)ccc3n2)cc1 | > 30 min
24 | CC1=C(C(=O)Nc2nncs2)C(c2[nH]ncc2Cl)N=C(Nc2nc3ccccc3o2)N1 (configuration not stated) | > 30 min
25 | CCC(CC)c1cc([C@H]2CN3CC[C@H]2C[C@@H]3CNC(C)=O)nc(-c2ccncc2)n1 | 10.9 min
26 | COCCNCc1ccc(-c2cc3nccc(Oc4ccc(NC(=O)C5(C(=O)Nc6ccc(F)cc6)CC5)cc4F)c3s2)nc1 | 14.8 min

Row | Structure (SMILES) | half-life
27 | COc1ccccc1S(=O)(=O)Nc1cnccc1C(=O)Nc1nc(-c2ccccc2)cs1 | 16 min
28 | O=C1CCCC2=C1C1(CCS(=O)(=O)C1)N=C(Nc1nc3ccccc3o1)N2 (configuration not stated) | 17 min
29 | C[S+](=O)([O-])c1ccc(-c2nc(C(=O)N3CCOCC3)n3ccncc23)cc1 | > 30 min
30 | COc1cccc(C(=O)Nc2ccc([S+](=O)([O-])Nc3nccs3)cc2)c1O | > 30 min
31 | COCCN1CCNc2nc(COc3ccc(C(C)C)cc3)n(Cc3ccccc3)c2C1=O | 1.82 min
32 | C#CCNC(=O)c1nc(-c2ccc([S+](C)(=O)[O-])cc2)c2cnccn12 | > 30 min
33 | CN(C)c1cccc(-c2nc(N3CCC(C(N)=O)CC3)ncc2F)c1 | 1.45 min
34 | CNC(=O)c1ccc(C)c(-n2c(C)cc(OCc3ccc(F)cc3F)c(Br)c2=O)c1 | > 30 min
35 | COc1ccccc1C(=O)Nc1ccccc1C(=O)Nc1cccc(SC(F)(F)F)c1 | 18 min
36 | Cc1cnc(-c2ccccc2C(C)C)nc1NCC1CCN(C2COC2)CC1 | 7.7 min
37 | CCOC(=O)c1c(C)c(-c2ccccc2)n(CC(=O)NCc2ccccc2)c1C | 2.28 min
38 | O=C(NC1CCCc2c1cnn2-c1ccc(F)cc1F)c1ccc(C2(C(F)(F)F)N=N2)cc1 (configuration not stated) | > 30 min
39 | COc1ccc(-n2nc(C)c([C@@H]3C=C[C@@H](NCc4ccc(F)cc4)C3)c2C)cc1 | 6.66 min
40 | CCNC(=O)c1coc(COc2ccc3c(c2)C(c2ccc(F)cc2)N(C(=O)CC(C)C)CC3)n1 (configuration not stated) | 1.55 min
41 | CC(=O)N1CCc2cc(S(=O)(=O)NCCC3=CCCCC3)ccc21 | 1.3 min
42 | CCOc1ccc(CNC(=O)CCCn2nc(C)c3c(C)n(-c4ccc(C)cc4)nc3c2=O)cc1 | 3.01 min
43 | CC(C)c1ccccc1-c1ncc(F)c(NCc2ccc(-c3cccnc3)s2)n1 | 2.8 min
44 | NC(=O)c1cnc(N[C@@H]2CCCC[C@@H]2N)nc1Nc1cccc(-n2nccn2)c1 | > 30 min
45 | CC(C)Oc1ccc(-c2csc(N3CCC(C(N)=O)CC3)n2)cc1 | > 30 min
46 | Cc1ccccc1OCC(O)CO (configuration not stated) | > 30 min
47 | Cc1cc(NC(=S)N2CCN(c3cccc(C(F)(F)F)c3)CC2)nc2ccccc12 | 26 min
48 | NC(=O)C1CCN(c2nnc(-c3ccc4c(c3)OCCCO4)s2)CC1 | > 30 min
49 | Cc1ccc(S(=O)(=O)Nc2cnccc2C(=O)Nc2nc(-c3ccncc3)cs2)cc1 | 17 min
50 | O=C(c1ccccc1)N1CCN(c2nc(-c3ccc(Br)cc3)cs2)CC1 | > 30 min
51 | Clc1ccc2ncc(-c3cccc(NC4CCNCC4)n3)n2c1 | > 30 min
52 | O=C(O)c1ccncc1Nc1nn(CCN2CCC(F)(F)CC2)c2ccc(F)cc12 | 22.2 min

Row | Structure (SMILES) | half-life
53 | OCCN1CCN(CCCN2c3ccccc3Sc3ccc(Cl)cc32)CC1 | 4.34 min
54 | COc1ccc(OC)c(-n2c3c(cc(-c4nc(-c5ccc(Cl)cc5)cs4)c2=O)C(=O)CC(C)(C)C3)c1 | > 30 min
55 | Nc1ncccc1-c1nc2ccc(-c3ccccc3)nc2n1-c1ccc(C2(N)CCC2)cc1 | > 30 min
56 | O=C(Cn1c2ncccc2c(=O)n1-c1ccccc1)Nc1ccc(Cl)cc1C(F)(F)F | 4.81 min
57 | O=C(Nc1nc(-c2ccccc2)cs1)c1ccncc1NS(=O)(=O)c1ccc(F)cc1F | 6.5 min
58 | COc1cccc(CNc2ccc(S(=O)(=O)Nc3nc4ccccc4s3)cc2)c1O | > 30 min
59 | Cc1cc(C)nc(NC(=S)N2CCN(c3nccc(C(F)(F)F)n3)CC2)c1 | 16 min
60 | CN1C[C@@H]2C[C@H]1CN2c1cc2c(cc1F)c(=O)c(C(=O)O)cn2C1CC1 | > 30 min
61 | CNC(=O)C1CCN(c2nc(-c3ccc(Br)cc3)cs2)CC1 | 26.2 min
62 | Cc1ccc(S(=O)(=O)Nc2cc(F)c(F)cc2C(=O)Nc2nc(-c3ccccc3)cs2)cc1 | 4.6 min
63 | C[C@H]1CN(C(=O)c2nn(C)c3ccccc23)C[C@@H]1c1nc(-c2cccnc2)no1 | 4.4 min
64 | CC(=O)c1c(C)oc2ccc(N(C(=O)Oc3ccccc3)S(=O)(=O)c3ccccc3)cc12 | 1.48 min
65 | NC(=O)C1CCN(c2nc(-c3ccccc3[N+](=O)[O-])cs2)CC1 | 3.9 min
66 | C[C@@H]1COCCN1c1cc(C2(S(C)(=N)=O)CC2)nc(-c2ccnc3[nH]ccc23)n1 (some centres not stated) | > 30 min
67 | CN1CCN(c2ccc(Nc3c4ccccc4nc4ccccc34)cc2)CC1 | 1.72 min
68 | O=C1Nc2c(Cl)cccc2/C1=C\c1cc(Cl)c(O)c(Cl)c1 | > 30 min
69 | C=C1C(=O)OC2C1CCC(C)C1(O)C=CC(=O)C21C (configuration not stated) | > 30 min
70 | COC(=O)c1ccnc(-c2cc(C(=O)NCCc3ccccc3)ccn2)c1 | 1.98 min
71 | Fc1cc(Nc2nc(-c3ccncc3)nc3ccccc23)ccc1N1CCNCC1 | > 30 min
72 | COc1ccc(OC)c(-c2cc(C(=O)N3CCN(c4ncccn4)CC3)c3ccccc3n2)c1 | 7.87 min
73 | O=C(Cc1n[nH]c(=O)c2ccccc12)NC1CCCc2c1[nH]c1c(Cl)cccc21 (configuration not stated) | 8.05 min
74 | NC1CCN(C(=O)C2CCCN(c3nc(-c4ccccc4)nc4c3CCC4)C2)CC1 (configuration not stated) | > 30 min
75 | O=C(NC1CCCc2c1[nH]c1ccc(Cl)cc21)c1ccncc1 (configuration not stated) | > 30 min
76 | N#Cc1cccc(S(=O)(=O)Nc2cnccc2C(=O)Nc2nc(-c3ccccc3)cs2)c1 | 14 min
77 | Cc1ccc(CN2C(=O)C(O)(CC(=O)c3ccc(C)cc3)c3ccccc32)cc1 (configuration not stated) | 1.18 min
78 | COc1cccc(C(=O)Nc2nc(-c3nnn(-c4cc(C)ccc4C)c3C)ns2)c1 | 17.6 min

Row | Structure (SMILES) | half-life
79 | O=C(Nc1nc(-c2ccccc2)cs1)c1ccncc1NS(=O)(=O)c1ccc2c(c1)CCC2 | 5.6 min
80 | CCOc1ccc(CCNC(=O)c2ccnn2Cc2ccccn2)cc1OCC | 5.6 min
81 | c1cc(-c2cc(-c3ccncc3)c3cncn3c2)c2[nH]ccc2c1 | 7.16 min
82 | O=C(Nc1ccc(Nc2ccncc2)cc1)c1ccc(Nc2ccnc3ccc([N+](=O)[O-])cc23)cc1[N+](=O)[O-] | > 30 min
83 | CC(=O)c1c(C)[nH]c(C(=O)Nc2cccc(S(=O)(=O)N3CCCCCC3)c2)c1C | 1.6 min
84 | CC(C)CNC(=O)c1cn2cc(-c3ccccc3)sc2n1 | > 30 min
85 | CCOC(=O)C1CCN(c2ncnc3c2c(-c2ccccc2)cn3-c2ccccc2)CC1 | 1.69 min
86 | CCn1nnnc1Sc1ncnc2scc(-c3ccc(C)cc3)c12 | 1.4 min
87 | O=C1CCCC2=C1C(c1[nH]ncc1Cl)N=C(Nc1nc3ccc(Cl)cc3o1)N2 (configuration not stated) | 10 min
88 | O=[S+]([O-])(Nc1ccccc1)c1ccc(NCc2cccc(C(F)(F)F)c2F)cc1 | 9 min
89 | Cn1ccc2c(C(=O)NCc3cccnc3)nc(-c3ccc(CO)cc3)cc21 | 15.7 min
90 | Cn1ccc2c(C(=O)NCC3CCC(=O)N3)nc(-c3ccccc3C#N)cc21 (configuration not stated) | 21.9 min
91 | O=C(NC1CCCc2c1cnn2-c1ccc(O)cc1)c1ccccn1 (configuration not stated) | > 30 min
92 | CC(=O)c1c(C)[nH]c(C(=O)Nc2cccc([S+](=O)([O-])Nc3ccc(C#N)cc3)c2)c1C | > 30 min
93 | Cc1cccc(-n2cnc3cc(C(=O)N4CCCC(C)(C)C4)ccc32)c1 | 1.6 min
94 | COc1ccccc1CNS(=O)(=O)c1ccc(-c2cnc(C3CC3)o2)cc1 | 1.58 min
95 | COC(=O)c1ccnc(NC(=S)N2CCN(c3cccc(C(F)(F)F)c3)CC2)c1 | > 30 min
96 | Fc1ccc(Cc2nc3nccc(-c4cccs4)n3n2)cc1 | 2.95 min
97 | O=C1Nc2cc(Cl)ccc2/C1=C\c1cc(Cl)c(O)c(Cl)c1 | > 30 min
98 | Cc1ccc(-c2csc(CCn3nc(C)c4c(C(F)(F)F)cc(=O)[nH]c43)n2)cc1 | 4.7 min
99 | Cc1ccc(-c2nn(C(C)(C)C)c3ncnc(N)c23)cc1 | 4.87 min
100 | COc1ccc(OC)c(-c2nnc3ccc(-c4ccc(OC)c(O[C@@H]5CCOC5)c4)nn23)c1 | 5.5 min
101 | Fc1ccc(Nc2nccc(-c3ccncc3)n2)cc1F | 16 min
102 | CCc1nnc(NC(=O)c2nc(S(=O)(=O)Cc3ccc(C)cc3)ncc2Cl)s1 | 7.58 min
